# From PubChem BioAssay AID179 (DTP/NCI, 2004)
# Several values for one entry are separate records, joined by “and”; a condition that tells them apart may be missing. Equal values may be shown once. Activity calls are given as the source filed them.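 The calls were made as follows: active = compounds giving half or more protection of infected cells from virus-caused growth loss, again on retest; inactive = the rest.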 Where a SMILES comes first, the peptide text is derived from it. Bridges are numbered along the chain shown (N, C = ends). Roman numbers before positions name the chains, in order.
# System: CEM cells HIV-1 protection, formazan growth assay
# Assay: NCI AIDS Antiviral Assay
# Settings: for IC50: measured here: growth of uninfected CEM cells
# In short: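 Category rules: moderately active means at least 50% protection on retest, and confirmed active means 100% protection reproducibly. The underlying data came from a formazan growth assay in HIV-1-infected CEM cells.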
SMILES,EC50,IC50,outcome
CC(=O)c1c(O)n(-c2ccc(C)cc2)c(=O)c2c(N)n[nH]c12,100 µM,117 µM,–
CCCCCCCCCC(=O)OC1CN2CC[C@H](O)C2C(O)[C@@H]1O (stereo not given in full),–,–,inactive
Nc1ccc(C(=O)N/C(=C\c2cccc([N+](=O)[O-])c2)c2nc3c4c(ccc3[nH]2)C(=O)c2ccccc2C4=O)cc1,–,–,inactive
O=C(C1OC1c1ccc(Br)cc1O)C12CC3CC(CC(C3)C1)C2 (stereo not given),> 200 µM,110 µM,–
O=C(O)CNS(=O)(=O)c1ccc(NCc2ccccc2)cc1,–,–,inactive
O[C@@H]1CCNC[C@@H]1CNC12CC3CC(CC(C3)C1)C2,> 955 µM,275 µM,–
O=C(/C=C/c1ccccc1)CCC1C(=O)NC(=O)NC1=O,> 66.1 µM,> 66.1 µM,–
CCCn1c(=O)c2nn3c(=O)n(CCC)c(=O)c3nn2c1=O,> 200 µM,> 200 µM,–
CC(=O)NC1C(OCc2ccccc2)OC(CO)C(O)C1OC(C)C(=O)NC(C)C(=O)NC(CCC(=O)NCCCCNc1c2ccccc2nc2cccc([N+](=O)[O-])c12)C(N)=O (stereo not given),> 200 µM,0.0631 µM,–
N#Cc1c(N2CCCC2)[nH]c(=O)[nH]c1=S,> 200 µM,> 200 µM,–
Nc1ccn(C2CSC(CO)CO2)c(=O)n1 (stereo not given),> 513 µM,407 µM,–
S=C1NC(=NC2CCCCC2)C2(CCN(CCc3ccccc3)CC2)N1c1ccccc1,> 100 µM,53.7 µM,–
COc1ccc2nc3ccccc3c(NCCCN(CCCl)CCCl)c2c1,–,–,inactive
NC(CSSCC(N)C(=O)NC(Cc1ccc(O)cc1)C(=O)O)C(=O)NC(Cc1ccc(O)cc1)C(=O)O (stereo not drawn) (I: H-Cys-Tyr-OH / II: H-Cys-Tyr-OH; disulfide I:1-II:1; configuration not given here),> 200 µM,> 200 µM,–
CCOC(=O)c1sc2nc(SC)nc3c2c1N=CN3c1ccccc1Cl,> 100 µM,> 100 µM,–
Cc1cc(O)c(/C=N/C(=S)NCc2ccccc2)c(=O)o1,> 200 µM,> 200 µM,–
CN(C)C1C(=O)C(C(=O)NCN2CCCC2)=C(O)C2(O)C(=O)C3=C(O)c4c(O)cccc4C(C)(O)C3CC12 (stereo not given),> 63.1 µM,53.7 µM,–
COc1ccc(NC2(Br)C(=O)NC(=O)NC2C(=O)O)cc1 (stereo not given),> 20 µM,> 20 µM,–
O=C1C2CC=CCC2C(=O)N1n1c(Cc2ccc(Cl)cc2)n[nH]c1=O (stereo not given),> 200 µM,> 200 µM,–
CN(C)Cc1cc(N=Nc2ccccc2Cl)cc(CN(C)C)c1O,> 200 µM,93.3 µM,–
CC(C)(C)OC(=O)NCC(=O)NC1c2ccsc2/C(=N/O)[C@H]1O (stereo not given in full),> 200 µM,> 200 µM,–
CC(=O)OC12C(C)=C(C)C(=O)N1c1ccccc1N2C(C)=O (stereo not given),–,–,inactive

SMILES,EC50,IC50,outcome
COc1ccc(/C=C2/N=C(c3ccccc3)OC2=O)cc1OC,> 23.4 µM,> 23.4 µM,–
CSc1nc(SC)c2ncn(C3CC(Oc4ccc(C)cc4)C(COc4ccc(C)cc4)O3)c2n1 (stereo not given),> 100 µM,66.1 µM,–
Cc1cccc(Nc2nc(NNC(=O)Cc3ccccc3)nc(NNC(=O)c3ccncc3)n2)c1,> 100 µM,> 100 µM,–
O=C1CC2(CCNCC2)C(=O)N1N1CCCCC1,> 200 µM,> 200 µM,–
COc1ccc2c(c1)-c1c(c3ccccc3n1CCN1CCCCC1)CC2,> 100 µM,30.9 µM,–
COc1cccc(/C=N/[N+](C)(C)C)c1O,> 200 µM,> 200 µM,–
O=C(CCCC[n+]1ccccc1)Sc1ccccc1C(=O)Nc1ccc(S(=O)(=O)Nc2ncccn2)cc1,17 µM,56.2 µM,–
N#CC1([N+](=O)[O-])C=C1c1ccccc1 (stereo not given),> 200 µM,89.1 µM,–
CCN(CC)C(=S)SS(=O)(=O)c1ccc(F)cc1,> 200 µM,18.6 µM,–
C1CN2CCN3CCN4CCN1[P+]243,–,–,inactive
Cc1cnc(C)c(-c2cc3ccccc3[nH]2)n1,> 32.4 µM,> 32.4 µM,–
CCOC(=O)c1ccc(CS(=O)(=O)c2ccc(N)cc2)c([N+](=O)[O-])c1,> 100 µM,> 100 µM,–
CC1=C[C@@H]2c3cc(c(O)cc3O)C(=O)[C@H]3C(c4ccc(O)cc4O)CC(C)=C[C@@H]3c3cc(c(O)cc3O)C(=O)C2C(c2ccc(O)cc2O)C1 (stereo not given in full),–,–,inactive
O=[N+]([O-])c1ccccc1S(=O)(=O)Nc1ccccc1,–,–,inactive
O=c1[nH][nH]c(=O)c2ncccc12,> 200 µM,> 200 µM,–
CC1CN2C(=O)[C@@H](OC(=O)Nc3cc([N+](=O)[O-])cc([N+](=O)[O-])c3)[C@H]3CC[C@@H]1[C@]32C (stereo not given in full),> 100 µM,55 µM,–
CCCc1cc(=O)oc2c3c(c4c(c12)OC(C)(C)CC4)O[C@H](C)C(C)C3=O (stereo not given in full),12.3 µM,186 µM,–
O=C1C2CSCC1CN(Cc1ccccc1)C2,> 525 µM,> 525 µM,–
O=C(Nc1sccc1S(=O)(=O)c1ccccc1)c1cccnc1,> 200 µM,4.47 µM,–
O=S(=O)(c1ccc(O)cc1)c1ccc(O)cc1,> 200 µM,158 µM,–
O=C(O)[C@@H]1CSC(c2ccc(Cl)cc2)N1 (stereo not given in full),> 200 µM,> 200 µM,–
C[N+](C)(C)CC(=O)NC(=O)N/N=C\C(CC#N)CN(Cc1ccccc1)Cc1ccccc1 (stereo not given),> 74.1 µM,> 74.1 µM,–

SMILES,EC50,IC50,outcome
CC1CCN(c2nnc(Cl)cc2C(=O)c2ccccc2)CC1,> 200 µM,52.5 µM,–
N#Cc1c(-c2ccc(Cl)cc2)c(-c2ccc(Cl)cc2)nn(CCOC(=O)CCC(=O)O)c1=O,> 513 µM,0.468 µM,–
CC1CC/C(=C\c2ccc(N(C)C)cc2)C(=O)/C1=C/c1ccc(N(C)C)cc1 (stereo not given),> 100 µM,60.3 µM,–
C/C(=N\NC(=S)NCCCCNC(=S)N/N=C(\C)c1ccccn1)c1ccccc1,> 200 µM,1.62 µM,–
CC1(C)N([O-])[N+](=O)C1(C)Br (stereo not given),> 200 µM,> 200 µM,–
Oc1ccc2occ3c2c1CCC3,–,–,inactive
CCOC(=O)/C(C#N)=C/Nc1c(C)n(C)n(-c2ccccc2)c1=O,> 200 µM,> 200 µM,–
N[C@H](CSSC[C@@H](N)C(=O)Nc1ccc2ccccc2c1)C(=O)Nc1ccc2ccccc2c1,> 200 µM,2.75 µM and 3.55 µM,–
O=C1c2ccccc2C2(O)c3cc4ccccc4cc3OC12O (stereo not given),> 589 µM,44.7 µM,–
COc1cc(NCC(C#N)C#N)ccc1N=Nc1ccc(Cl)cc1,> 21.4 µM,> 21.4 µM,–
Cc1nc2[nH]ncn2c(=O)c1CCO,> 200 µM,> 200 µM,–
Cc1oc2cc(O)ccc2c(=O)c1-c1ccccc1,> 200 µM,30.2 µM,–
COc1cc(/C=C2\CN(C)CC3=C2NC(=S)NC3c2cc(OC)c(OC)c(OC)c2)cc(OC)c1OC (stereo not given),> 200 µM,38.9 µM,–
CCc1[nH]c(=O)c2oc3cc4ccccc4cc3c2c1C(=O)O,> 200 µM,> 200 µM,–
C[N+](C)(C)CC(=O)N/N=C(\C(=O)Nc1ccc(Cl)cc1)C1C(=O)N(c2ccccc2)N=C1N (stereo not given),> 17.8 µM,> 17.8 µM,–
O=CN/C=C/c1ccccc1,> 200 µM,> 200 µM,–
C/C1=C2\CC(OC3OCC(O)C(O)C3O)C(C)C2C/C=C(/C=O)[C@H]2C[C@@]3(C)CCC(C(C)C)C3CC12 (stereo not given in full),> 93.3 µM,> 93.3 µM,–
Cc1csc2c(=O)n(C3OC(CO)C(O)C3O)c(=O)[nH]c12 (stereo not given),> 200 µM,> 200 µM,–
CC(=O)O[C@H]1CC[C@@]2(C)C(=CC[C@@H]3C2CC[C@]2(C)Nc4nc5ccccc5cc4CC32)C1 (stereo not given in full),–,–,inactive
[N-]=[N+]=Nc1c(-c2ccccc2)c(=O)n(-c2ccccc2)c2ccccc12,–,–,inactive
Cc1cc(S(=O)(=O)Nc2n[nH]c(-c3ccccn3)n2)c(S)cc1Cl,> 200 µM,4.17 µM,–
COc1ccc(C2C(Cl)C(=O)N2NC(=O)c2ccc(NC(C)=O)cc2)cc1OC (stereo not given),> 200 µM,> 200 µM,–

SMILES,EC50,IC50,outcome
NC(N)=NCC[C@H](NC(=O)OCCCCCn1ccc(=O)[nH]c1=O)C(=O)O,> 200 µM,> 200 µM,–
CC(=O)NNC(=S)N/C=C(\C#N)c1nc2ccccc2s1,> 200 µM,> 200 µM,–
O=C(Cn1ccnc1[N+](=O)[O-])c1ccccc1,> 562 µM,> 562 µM,–
COc1ccc(NC2CC(C)N(C(=O)c3ccccc3)O2)cc1 (stereo not given),> 200 µM,95.5 µM,–
COc1cc(-c2cc(=O)c3c(O)cc(C)cc3o2)cc(OC)c1OC,> 200 µM,> 200 µM,–
CCc1cc2c(oc3cc(C)ccc32)c(=O)[nH]1,> 100 µM,> 100 µM,–
COc1ccc(C(=O)C[P+](c2ccccc2)(c2ccccc2)c2ccccc2)cc1,> 200 µM,33.9 µM,–
COc1cccc2c1C(=O)c1c(O)c3c(c(O)c1C2=O)C[C@@](O)(C(C)=O)C[C@@H]3OC1CC(N(Cc2ccccc2)Cc2ccccc2)C(O)C(C)O1 (stereo not given in full),–,–,inactive
O=C1[C@@H]2C[C@@H](O)CN2C(=O)c2ccccc2N1CCCO,–,–,inactive
COc1ccc2c(c1)OC(=O)CC2c1ccc(OC)c(OC)c1 (stereo not given),> 200 µM,> 200 µM,–
CC(NC(=O)C(N)CC(=O)O)NC(=O)C1CCC1 (stereo not given),> 200 µM,> 200 µM,–
O=C(NNC(=S)Nc1ccccc1)c1csc(NC(=S)NC2CCCCC2)n1,6.92 µM,7.41 µM,–
c1ccc(CNC2C(c3ccccc3)=NN(c3ccccc3)C2c2ccccc2)cc1 (stereo not given),> 200 µM,> 200 µM,–
CC(=O)N(O)c1ccc(Cl)cc1,> 200 µM,> 200 µM,–
COC1=C(OC)C(=O)C2=C(OCCCO2)C1=O,> 389 µM,2 µM,–
COC1CC(Br)(C#N)C1 (stereo not given),–,–,inactive
O=C1OC([C@H](O)c2cccnc2)c2ccccc21 (stereo not given in full),> 200 µM,> 200 µM,–
O=c1c2cccnc2ncn1CCCN1CCCC1,–,–,inactive
CCOC(=O)c1c(C)[nH]c(=S)c(C#N)c1-c1ccco1,> 200 µM,81.3 µM,–
Cc1ccc(SC[C@@]2(C(F)F)NC(=O)NC2=O)cc1,> 200 µM,> 200 µM,–
O=C(CN1CCCCC1)Nc1ccc2c(c1)C1Oc3ccccc3CC1CO2 (stereo not given),–,–,inactive
Nc1ccc(N=Nc2ccc(N=Nc3c(S(=O)(=O)O)cc4cc(S(=O)(=O)O)c(N=Nc5ccc(N=Nc6ccc(N)cc6N)cc5)c(O)c4c3N)cc2)c(N)c1,11.5 µM,50.1 µM,–
